# From PubChem BioAssay AID220 (DTP/NCI, 2004)
# Several values for one entry are separate records, joined by “and”; a condition that tells them apart may be missing. Equal values may be shown once. Records with an inconclusive call do not appear.
# Tested on: CD8F1 mice, subcutaneous mammary adenocarcinoma, T/C%
# Assay: NCI In Vivo Anticancer Drug Screen. Data for tumor model Mammary Adenocarcinoma CD8F1 (subcutaneous) in CD8F1
# Settings: higher = larger tumour
# How it was run: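 Mice carrying transplanted tumors received test compound, and survival or tumor size was recorded. Each value is the treated-group measurement divided by the corresponding measurement in vehicle-dosed controls.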
# [1] = endpoint: median tumor weight change, dose: 125.0 mg/kg/injection, schedule: Q01DX001 (ip), vehicle: saline
# [2] = endpoint: median tumor weight (est.), dose: 12.5 mg/kg/injection, schedule: Q07DX005 (ip), vehicle: saline with Tween-80
# [3] = endpoint: median tumor weight (est.), dose: 100.0 mg/kg/injection, schedule: Q07DX005 (ip), vehicle: saline with Tween-80
# [4] = endpoint: median tumor weight (est.), dose: 200.0 mg/kg/injection, schedule: Q07DX005 (ip), vehicle: saline with Tween-80
# [5] = endpoint: median tumor weight (est.), dose: 25.0 mg/kg/injection, schedule: Q07DX005 (ip), vehicle: saline with Tween-80
# [6] = endpoint: median tumor weight (est.), dose: 50.0 mg/kg/injection, schedule: Q07DX005 (ip), vehicle: saline with Tween-80
# [7] = endpoint: median tumor weight change, dose: 15.62 mg/kg/injection, schedule: Q01DX001 (ip), vehicle: saline with Tween-80
# [8] = endpoint: median tumor weight change, dose: 31.25 mg/kg/injection, schedule: Q01DX001 (ip), vehicle: saline with Tween-80
compound,measurement,setting,value
C=C(NC(=O)C(=C)NC(=O)c1csc(C2=NC3c4csc(n4)C4NC(=O)c5csc(n5)C(C(C)(O)C(C)O)NC(=O)C5CSC(=N5)/C(=C/C)NC(=O)C(C(C)O)NC(=O)c5csc(n5)C3(CC2)NC(=O)C(C)NC(=O)C(=C)NC(=O)C(=C)NC(=O)C(C(C)C)NC2C=Cc3c(C(C)O)cc(nc3C2O)C(=O)OC4C)n1)C(N)=O (stereo not drawn),T/C,[1],156 % of control
same,T/C,"endpoint: median tumor weight change, dose: 250.0 mg/kg/injection, schedule: Q01DX001 (ip), vehicle: saline",106 % of control
same,T/C,"endpoint: median tumor weight change, dose: 500.0 mg/kg/injection, schedule: Q01DX001 (ip), vehicle: saline",110 % of control
same,T/C,"endpoint: median tumor weight change, dose: 1000.0 mg/kg/injection, schedule: Q01DX001 (ip), vehicle: saline",86 % of control
Cc1c(N)nc(C(CC(N)=O)NCC(N)C(N)=O)nc1C(=O)NC(C(=O)NC(C)C(O)C(C)C(=O)NC(C(=O)NCCc1nc(-c2nc(C(=O)NCCCNC(C)c3ccccc3)cs2)cs1)C(C)O)C(OC1OC(CO)C(O)C(O)C1OC1OC(CO)C(O)C(OC(N)=O)C1O)c1cnc[nH]1 (stereo not drawn),T/C,"endpoint: median tumor weight (est.), dose: 0.5 mg/kg/injection, schedule: Q07DX005 (ip), vehicle: water",122 % of control
same,T/C,"endpoint: median tumor weight (est.), dose: 1.0 mg/kg/injection, schedule: Q07DX005 (ip), vehicle: water",123 % of control
same,T/C,"endpoint: median tumor weight (est.), dose: 2.0 mg/kg/injection, schedule: Q07DX005 (ip), vehicle: water",89 % of control
same,T/C,"endpoint: median tumor weight (est.), dose: 4.0 mg/kg/injection, schedule: Q07DX005 (ip), vehicle: water",29 % of control
same,T/C,"endpoint: median tumor weight (est.), dose: 8.0 mg/kg/injection, schedule: Q07DX005 (ip), vehicle: water",78 % of control
same,T/C,"endpoint: median tumor weight (est.), dose: 16.0 mg/kg/injection, schedule: Q07DX005 (ip), vehicle: water",21 % of control
C=C/C(C)=C/[C@H](C)C(=O)C[C@H](O)CC1CC(=O)NC(=O)C1,T/C,"endpoint: median tumor weight (est.), dose: 6.25 mg/kg/injection, schedule: Q07DX005 (ip), vehicle: saline with Tween-80",41 % of control
same,T/C,[2],62 % of control
same,T/C,[3],157 % of control
same,T/C,[4],50 % of control
ClCC[N+]12CC[N+](CCCl)(CC1)C2,T/C,"endpoint: mean tumor weight, dose: 12.5 mg/kg/injection, schedule: Q07DX006 (ip), vehicle: water",16 % of control
same,T/C,"endpoint: mean tumor weight, dose: 25.0 mg/kg/injection, schedule: Q07DX006 (ip), vehicle: water",85 % of control
same,T/C,"endpoint: mean tumor weight, dose: 50.0 mg/kg/injection, schedule: Q07DX006 (ip), vehicle: water",72 % of control
same,T/C,"endpoint: mean tumor weight, dose: 100.0 mg/kg/injection, schedule: Q07DX006 (ip), vehicle: water",18 % of control
same,T/C,"endpoint: mean tumor weight, dose: 200.0 mg/kg/injection, schedule: Q07DX006 (ip), vehicle: water",3 % of control
same,T/C,"endpoint: median tumor weight (est.), dose: 12.5 mg/kg/injection, schedule: Q07DX005 (ip), vehicle: water",70 % of control
same,T/C,"endpoint: median tumor weight (est.), dose: 25.0 mg/kg/injection, schedule: Q07DX005 (ip), vehicle: water",54 % of control
same,T/C,"endpoint: median tumor weight (est.), dose: 50.0 mg/kg/injection, schedule: Q07DX005 (ip), vehicle: saline",68 % of control and 50 % of control
same,T/C,"endpoint: median tumor weight (est.), dose: 50.0 mg/kg/injection, schedule: Q07DX005 (ip), vehicle: water",49 % of control
same,T/C,"endpoint: median tumor weight (est.), dose: 100.0 mg/kg/injection, schedule: Q07DX005 (ip), vehicle: water",32 % of control
same,T/C,"endpoint: median tumor weight (est.), dose: 200.0 mg/kg/injection, schedule: Q07DX005 (ip), vehicle: saline",20 % of control
same,T/C,"endpoint: median tumor weight (est.), dose: 400.0 mg/kg/injection, schedule: Q07DX005 (ip), vehicle: saline",6 % of control
OCCOCC(F)(F)F,T/C,[2],57 % of control
same,T/C,[5],102 % of control and 106 % of control
same,T/C,[6],97 % of control and 104 % of control
same,T/C,[4],67 % of control
same,T/C,"endpoint: median tumor weight (est.), dose: 800.0 mg/kg/injection, schedule: Q07DX005 (ip), vehicle: saline with Tween-80",70 % of control
C/C(=N\N=C(/[Se])N1CC2CCC(CC2)C1)c1ccccn1,T/C,"endpoint: median tumor weight change, dose: 8.0 mg/kg/injection, schedule: Q01DX001 (ip), vehicle: Klucel (hydroxypropylcellulose) (HPC)",86 % of control
same,T/C,"endpoint: median tumor weight change, dose: 15.62 mg/kg/injection, schedule: Q01DX001 (ip), vehicle: Klucel (hydroxypropylcellulose) (HPC)",114 % of control
same,T/C,[7],109 % of control
same,T/C,"endpoint: median tumor weight change, dose: 16.0 mg/kg/injection, schedule: Q01DX001 (ip), vehicle: Klucel (hydroxypropylcellulose) (HPC)",27 % of control
same,T/C,"endpoint: median tumor weight change, dose: 31.0 mg/kg/injection, schedule: Q01DX001 (ip), vehicle: Klucel (hydroxypropylcellulose) (HPC)",55 % of control
same,T/C,[8],87 % of control
same,T/C,"endpoint: median tumor weight change, dose: 62.0 mg/kg/injection, schedule: Q01DX001 (ip), vehicle: Klucel (hydroxypropylcellulose) (HPC)",18 % of control
same,T/C,"endpoint: median tumor weight change, dose: 62.5 mg/kg/injection, schedule: Q01DX001 (ip), vehicle: Klucel (hydroxypropylcellulose) (HPC)",122 % of control
same,T/C,"endpoint: median tumor weight change, dose: 62.5 mg/kg/injection, schedule: Q01DX001 (ip), vehicle: saline with Tween-80",65 % of control
same,T/C,"endpoint: median tumor weight change, dose: 125.0 mg/kg/injection, schedule: Q01DX001 (ip), vehicle: Klucel (hydroxypropylcellulose) (HPC)",111 % of control
same,T/C,"endpoint: median tumor weight change, dose: 125.0 mg/kg/injection, schedule: Q01DX001 (ip), vehicle: saline with Tween-80",59 % of control
CC(=O)N(C)c1ccc(Nc2cc(C)[nH]c3ccc4ncnc4c23)cc1,T/C,[1],34 % of control and 46 % of control
C[n+]1c(-c2cccc(OCCOCCOc3cccc(-c4c5cc(N)ccc5c5ccc(N)cc5[n+]4C)c3)c2)c2cc(N)ccc2c2ccc(N)cc21,T/C,"endpoint: median tumor weight change, dose: 5.0 mg/kg/injection, schedule: Q01DX001 (ip), vehicle: water",63 % of control
same,T/C,"endpoint: median tumor weight change, dose: 10.0 mg/kg/injection, schedule: Q01DX001 (ip), vehicle: water",72 % of control
same,T/C,"endpoint: median tumor weight change, dose: 40.0 mg/kg/injection, schedule: Q01DX001 (ip), vehicle: water",60 % of control
CC(C)(C)N1CC1CNC(=O)C(=O)NCC1CN1C(C)(C)C (stereo not drawn),T/C,"endpoint: median tumor weight change, dose: 15.6 mg/kg/injection, schedule: Q01DX001 (ip), vehicle: saline with Tween-80",50 % of control
same,T/C,[7],30 % of control
same,T/C,[8],30 % of control and 37 % of control
CN(C)CCN1C(=O)c2cccc3cc(N)cc(c23)C1=O,T/C,"endpoint: median tumor weight change, dose: 10.0 mg/kg/injection, schedule: Q01DX001 (ip), vehicle: saline with Tween-80",81 % of control and 92 % of control
same,T/C,"endpoint: median tumor weight change, dose: 40.0 mg/kg/injection, schedule: Q01DX001 (ip), vehicle: saline with Tween-80",42 % of control and 44 % of control and 61 % of control
COc1cccc2c1C(=O)c1c(O)c3c(c(O)c1C2=O)C[C@@](O)(/C(C)=N/NC(=O)c1ccccc1)C[C@@H]3OC1CC(N)C(O)C(C)O1 (stereo partly drawn),T/C,"endpoint: median tumor weight (est.), dose: 3.12 mg/kg/injection, schedule: Q07DX005 (ip), vehicle: water",263 % of control
same,T/C,"endpoint: median tumor weight (est.), dose: 6.25 mg/kg/injection, schedule: Q07DX005 (ip), vehicle: water",82 % of control
CN(C)/N=N/c1nc[nH]c1C(N)=O,T/C,"endpoint: median tumor weight (est.), dose: 25.0 mg/kg/injection, schedule: Q07DX004 (ip), vehicle: saline",102 % of control
same,T/C,"endpoint: median tumor weight (est.), dose: 25.0 mg/kg/injection, schedule: Q07DX005 (ip), vehicle: Klucel (hydroxypropylcellulose) (HPC)",118 % of control
same,T/C,"endpoint: median tumor weight (est.), dose: 50.0 mg/kg/injection, schedule: Q07DX004 (ip), vehicle: saline",111 % of control
same,T/C,"endpoint: median tumor weight (est.), dose: 50.0 mg/kg/injection, schedule: Q07DX005 (ip), vehicle: Klucel (hydroxypropylcellulose) (HPC)",81 % of control
same,T/C,"endpoint: median tumor weight (est.), dose: 100.0 mg/kg/injection, schedule: Q07DX004 (ip), vehicle: saline",90 % of control
same,T/C,"endpoint: median tumor weight (est.), dose: 100.0 mg/kg/injection, schedule: Q07DX005 (ip), vehicle: Klucel (hydroxypropylcellulose) (HPC)",46 % of control
same,T/C,"endpoint: median tumor weight (est.), dose: 200.0 mg/kg/injection, schedule: Q07DX004 (ip), vehicle: saline",62 % of control
same,T/C,"endpoint: median tumor weight (est.), dose: 200.0 mg/kg/injection, schedule: Q07DX005 (ip), vehicle: Klucel (hydroxypropylcellulose) (HPC)",26 % of control
same,T/C,"endpoint: median tumor weight (est.), dose: 400.0 mg/kg/injection, schedule: Q07DX004 (ip), vehicle: saline",13 % of control
same,T/C,"endpoint: median tumor weight (est.), dose: 400.0 mg/kg/injection, schedule: Q07DX005 (ip), vehicle: Klucel (hydroxypropylcellulose) (HPC)",16 % of control
CC[C@@]1(O)C[C@H](OC2CC(N(C)C)C(OC3CC(O)C(OC4CC(O)C(O)C(C)O4)C(C)O3)C(C)O2)c2c(cc3c(c2O)C(=O)c2c(O)ccc(O)c2C3=O)[C@H]1C(=O)OC (stereo partly drawn),T/C,"endpoint: median tumor weight (est.), dose: 0.75 mg/kg/injection, schedule: Q07DX005 (ip), vehicle: other",122 % of control
same,T/C,"endpoint: median tumor weight (est.), dose: 3.0 mg/kg/injection, schedule: Q07DX005 (ip), vehicle: other",84 % of control
CC1(CO)C(O)CCC2(C)C1CCC1CC3CC12CCC3(O)CO (stereo not drawn),T/C,[2],39 % of control
same,T/C,"endpoint: median tumor weight (est.), dose: 18.75 mg/kg/injection, schedule: Q07DX005 (ip), vehicle: saline with Tween-80",53 % of control
same,T/C,[5],55 % of control
same,T/C,"endpoint: median tumor weight (est.), dose: 37.5 mg/kg/injection, schedule: Q07DX005 (ip), vehicle: saline with Tween-80",85 % of control
same,T/C,[6],60 % of control
same,T/C,[3],58 % of control
same,T/C,[4],92 % of control
same,T/C,"endpoint: median tumor weight (est.), dose: 400.0 mg/kg/injection, schedule: Q07DX005 (ip), vehicle: saline with Tween-80",13 % of control
